From patent publication US10183943B2, “Heterocyclic compounds and their use in preventing or treating bacterial infections” (MUTABILIS, priority 2015, dated 2019)

Key:
TEM-1 = molecular target: T1, TEM-1 (Escherichia coli, UniProt P62593); assay: β-lactamase inhibitory activity, determination of IC50 (nitrocefin hydrolysis); format: biochemical
T1 construct: made in house; host or cells: E. coli

SHV-1 = molecular target: T2, SHV-1 (Klebsiella pneumoniae, UniProt P0AD64); assay: as above; format: biochemical
T2 construct: made in house; host or cells: E. coli

CTX-M-15 = molecular target: T3, CTX-M-15 (Escherichia coli, UniProt Q9EXV5); assay: as above; format: biochemical; details: class (A); nitrocefin 200 μM, 30 min pre-incubation; read-out: IC50 β-lactamase CTX-M-15
T3 construct: made in house; host or cells: E. coli

KPC-2 = molecular target: T4, KPC-2 (Klebsiella pneumoniae, UniProt Q9F663); assay: as above; format: biochemical; details: class (A); nitrocefin 200 μM, 30 min pre-incubation; read-out: IC50 β-lactamase KPC-2
T4 construct: made in house; host or cells: E. coli

OXA-1 = molecular target: T5, OXA-1 (Escherichia coli, UniProt P13661); assay: as above; format: biochemical; details: class (D); nitrocefin 200 μM, 30 min pre-incubation; read-out: IC50 β-lactamase OXA-1
T5 construct: made in house; host or cells: E. coli

OXA-11 = molecular target: T6, OXA-11 (Pseudomonas aeruginosa, UniProt Q06778); assay: as above; format: biochemical
T6 construct: made in house; host or cells: E. coli

OXA-15 = molecular target: T7, OXA-15 (Pseudomonas aeruginosa, UniProt Q51574); assay: biochemical
T7 construct: made in house; host or cells: E. coli

OXA-48 = molecular target: T8, OXA-48 (Klebsiella pneumoniae, UniProt Q6XEC0); assay: β-lactamase inhibitory activity, determination of IC50 (nitrocefin hydrolysis); format: biochemical; details: class (D); nitrocefin 200 μM, 30 min pre-incubation; read-out: IC50 β-lactamase OXA-48
T8 construct: made in house; host or cells: E. coli

E. cloacae P99 (AmpC) = assay: MIC of compounds alone, broth microdilution; format: cell-based; details: Enterobacter cloacae; strain P99 (E. cloacae); read-out: MIC compounds of the invention alone
Protocol: (§1) Method 2: MIC of Compounds and Synergy with Ceftazidime Against Bacterial Isolates (Table 2 and 3)
(§2) Compounds of the present invention were assessed against genotyped bacterial strains alone or in combination with the β-lactam ceftazidime (CAZ). In the assays, MICs of said compounds, or of ceftazidime at fixed concentrations of said compounds were determined by the broth microdilution method according to the Clinical Laboratory Standards Institute (CLSI-M7-A7). Briefly, compounds alone according to the invention were prepared in DMSO and spotted (2 μL each) on sterile polystyrene plates (Corning, 3788). Compounds and ceftazidime dilutions were prepared in DMSO and spotted (1 μL each) on sterile polystyrene plates (Corning, 3788). Log phase bacterial suspensions were adjusted to a final density of 5×10^5 cfu/mL in cation-adjusted Mueller-Hinton broth (Becton-Dickinson) and added to each well (98 μL). Microplates were incubated for 16-20 h at 35° C. in ambient air. The MIC of the compounds was defined as the lowest concentration of said compounds that prevented bacterial growth as read by visual inspection. The MIC of ceftazidime at each compound concentration was defined as the lowest concentration of ceftazidime that prevented bacterial growth as read by visual inspection.

[1] = tested on: E. coli 131119 (TEM-1, OXA-48); assay: MIC of compounds alone, broth microdilution; format: cell-based; details: Escherichia coli; strain 131119 (E. coli); read-out: MIC compounds of the invention alone
Protocol: as §1, §2

[2] = tested on: E. coli 190317 (TEM-1, SHV-12, CTX-M-15, OXA-1); assay: MIC of compounds alone, broth microdilution; format: cell-based; details: Escherichia coli, read-out: MIC compounds of the invention alone
Protocol: as §1, §2

E. coli RGN238 (OXA-1) = assay: MIC of compounds alone, broth microdilution; format: cell-based; details: Escherichia coli; strain RGN238 (E. coli); read-out: MIC compounds of the invention alone
Protocol: as §1, §2

[3] = tested on: K. pneumoniae 6299 (TEM-1, SHV-11, OXA-163); assay: MIC of compounds alone, broth microdilution; format: cell-based; details: Klebsiella pneumoniae; strain 6299 (K. pneumoniae); read-out: MIC compounds of the invention alone
Protocol: as §1, §2

[4] = tested on: K. pneumoniae BAA-1898 (TEM-1, SHV-11, SHV-12, KPC-2); assay: MIC of compounds alone, broth microdilution; format: cell-based; details: Klebsiella pneumoniae, BAA1898; strain BAA-1898 (K. pneumoniae); read-out: MIC compounds of the invention alone
Protocol: as §1, §2

[5] = tested on: P. aeruginosa CIP107051 (TEM-24); assay: MIC of compounds alone, broth microdilution; format: cell-based; details: Pseudomonas aeruginosa; strain CIP107051 (P. aeruginosa); read-out: MIC compounds of the invention alone
Protocol: as §1, §2

AmpC (P99) = AmpC (P99) (Enterobacter cloacae, UniProt P05364); assay: β-lactamase inhibitory activity, determination of IC50 (nitrocefin hydrolysis)
AmpC P. aeruginosa = AmpC P. aeruginosa (Pseudomonas aeruginosa, UniProt P24735); assay: as above
AmpC P. aeruginosa, sequence (P24735 27-397): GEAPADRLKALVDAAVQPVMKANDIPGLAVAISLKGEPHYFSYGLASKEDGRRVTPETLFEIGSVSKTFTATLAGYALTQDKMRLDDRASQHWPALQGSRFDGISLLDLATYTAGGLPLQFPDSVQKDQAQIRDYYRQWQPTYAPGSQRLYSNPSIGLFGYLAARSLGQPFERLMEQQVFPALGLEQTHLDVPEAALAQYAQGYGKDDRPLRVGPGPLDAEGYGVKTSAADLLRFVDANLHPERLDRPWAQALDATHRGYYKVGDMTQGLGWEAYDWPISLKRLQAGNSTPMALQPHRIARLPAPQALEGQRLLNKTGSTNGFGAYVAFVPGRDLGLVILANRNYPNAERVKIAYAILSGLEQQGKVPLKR

T3 sequence (Q9EXV5 entry or part of it): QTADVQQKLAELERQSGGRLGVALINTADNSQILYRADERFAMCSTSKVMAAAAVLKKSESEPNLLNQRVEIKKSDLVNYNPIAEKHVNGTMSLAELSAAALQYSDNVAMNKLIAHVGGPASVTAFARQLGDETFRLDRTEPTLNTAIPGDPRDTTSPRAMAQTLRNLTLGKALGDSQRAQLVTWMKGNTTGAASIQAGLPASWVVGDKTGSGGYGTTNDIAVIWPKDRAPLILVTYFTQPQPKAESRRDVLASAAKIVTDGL
T7 sequence (Q51574 22-275): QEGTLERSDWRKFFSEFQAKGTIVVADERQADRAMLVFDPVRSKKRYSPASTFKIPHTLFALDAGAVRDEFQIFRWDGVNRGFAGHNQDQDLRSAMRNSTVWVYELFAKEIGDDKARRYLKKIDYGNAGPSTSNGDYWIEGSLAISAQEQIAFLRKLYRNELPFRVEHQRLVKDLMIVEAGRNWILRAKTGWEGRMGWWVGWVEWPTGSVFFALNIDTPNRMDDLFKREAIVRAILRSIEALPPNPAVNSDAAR
T8 sequence (Q6XEC0 23-265 limits assumed): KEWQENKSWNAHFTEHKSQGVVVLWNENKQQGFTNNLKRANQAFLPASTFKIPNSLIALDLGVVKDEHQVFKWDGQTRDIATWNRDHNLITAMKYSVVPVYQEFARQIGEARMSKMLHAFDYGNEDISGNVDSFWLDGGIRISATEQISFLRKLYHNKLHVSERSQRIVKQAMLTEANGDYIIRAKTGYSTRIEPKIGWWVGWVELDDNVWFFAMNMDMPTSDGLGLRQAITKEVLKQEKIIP
T2 sequence (P0AD64 22-286): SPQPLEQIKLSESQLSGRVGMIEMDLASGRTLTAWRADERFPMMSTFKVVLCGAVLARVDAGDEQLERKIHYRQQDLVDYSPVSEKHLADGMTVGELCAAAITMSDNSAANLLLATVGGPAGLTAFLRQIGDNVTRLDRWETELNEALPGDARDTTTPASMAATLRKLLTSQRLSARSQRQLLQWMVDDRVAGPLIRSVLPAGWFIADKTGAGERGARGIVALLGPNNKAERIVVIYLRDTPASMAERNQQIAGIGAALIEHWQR
T6 sequence (Q06778 21-266): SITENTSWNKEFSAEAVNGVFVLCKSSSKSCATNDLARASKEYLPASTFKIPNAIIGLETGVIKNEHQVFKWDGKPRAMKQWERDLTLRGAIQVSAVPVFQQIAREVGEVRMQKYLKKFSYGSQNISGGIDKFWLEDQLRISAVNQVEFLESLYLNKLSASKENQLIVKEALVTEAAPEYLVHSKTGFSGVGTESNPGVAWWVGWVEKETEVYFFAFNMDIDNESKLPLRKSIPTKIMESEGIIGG
AmpC (P99), sequence (P05364 21-381): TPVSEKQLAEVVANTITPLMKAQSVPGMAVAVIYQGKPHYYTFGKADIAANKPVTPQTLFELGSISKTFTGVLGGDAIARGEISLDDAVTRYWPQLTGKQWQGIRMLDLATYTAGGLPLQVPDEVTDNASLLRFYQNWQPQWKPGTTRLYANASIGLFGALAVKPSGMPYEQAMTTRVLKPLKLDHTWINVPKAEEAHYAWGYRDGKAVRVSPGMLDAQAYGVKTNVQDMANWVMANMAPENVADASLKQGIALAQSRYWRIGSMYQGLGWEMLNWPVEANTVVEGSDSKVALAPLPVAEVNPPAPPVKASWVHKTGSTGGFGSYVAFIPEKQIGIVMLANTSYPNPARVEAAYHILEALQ
T1 sequence (P62593 24-286 limits assumed): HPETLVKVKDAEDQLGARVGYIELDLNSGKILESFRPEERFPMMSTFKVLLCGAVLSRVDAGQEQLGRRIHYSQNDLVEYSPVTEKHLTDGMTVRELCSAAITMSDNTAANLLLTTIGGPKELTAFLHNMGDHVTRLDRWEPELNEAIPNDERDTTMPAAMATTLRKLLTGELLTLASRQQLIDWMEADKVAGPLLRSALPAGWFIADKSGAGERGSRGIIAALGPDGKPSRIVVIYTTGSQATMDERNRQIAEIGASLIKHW
T4 sequence (Q9F663 25-293 limits assumed): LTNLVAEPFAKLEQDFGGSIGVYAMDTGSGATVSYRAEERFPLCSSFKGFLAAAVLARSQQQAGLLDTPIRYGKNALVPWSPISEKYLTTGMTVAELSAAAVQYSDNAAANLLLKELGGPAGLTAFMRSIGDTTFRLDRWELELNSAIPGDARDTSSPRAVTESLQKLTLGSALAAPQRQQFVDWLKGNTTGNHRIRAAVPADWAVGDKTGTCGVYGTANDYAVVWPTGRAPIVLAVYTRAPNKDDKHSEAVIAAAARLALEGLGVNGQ
T5 sequence (P13661 26-276): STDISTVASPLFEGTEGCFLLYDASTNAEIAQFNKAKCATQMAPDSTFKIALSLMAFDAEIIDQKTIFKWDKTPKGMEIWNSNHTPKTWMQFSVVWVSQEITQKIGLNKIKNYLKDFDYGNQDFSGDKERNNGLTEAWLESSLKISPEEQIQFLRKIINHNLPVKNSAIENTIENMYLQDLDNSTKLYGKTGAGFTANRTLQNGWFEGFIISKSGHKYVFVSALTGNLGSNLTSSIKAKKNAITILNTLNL

| Structure (SMILES) | IC50 (TEM-1) [nM] | IC50 (SHV-1) [nM] | IC50 (CTX-M-15) [nM] | IC50 (KPC-2) [nM] | IC50 (OXA-1) [nM] | IC50 (OXA-11) [nM] | IC50 (OXA-15) [nM] | IC50 (OXA-48) [nM] | MIC (E. cloacae P99 (AmpC)) [µg/mL] | MIC [1] [µg/mL] | MIC [2] [µg/mL] | MIC (E. coli RGN238 (OXA-1)) [µg/mL] | MIC [3] [µg/mL] | MIC [4] [µg/mL] | MIC [5] [µg/mL] | IC50 (AmpC (P99)) [nM] | IC50 (AmpC P. aeruginosa) [nM] |
| --- | --- | --- | --- | --- | --- | --- | --- | --- | --- | --- | --- | --- | --- | --- | --- | --- | --- |
| O=C1N2CC=C(c3cn[nH]c3)C(C2)N1OS(=O)(=O)[O-].[Na+] (centres unmarked) [Example 1, Sodium (7-oxo-4-pyrazol-4-yl-1,6-diaza-bicyclo[3.2.1]oct-3-en-6-yl) sulfate] | 13 | 29 | 26 | 770 | 1400 | 2900 | 590 | 8.9 | > 32 | > 32 | 32 | > 32 | > 32 | > 32 | > 32 | 6100 | 9300 |
| Cn1nccc1C1=CCN2CC1N(OS(=O)(=O)[O-])C2=O.[Na+] (centres unmarked) [Example 2, Sodium [4-(2-methylpyrazol-3-yl)-7-oxo-1,6-diazabicyclo[3.2.1]oct-3-en-6-yl] sulfate] | 2.7 | 6.4 | 33 | 1200 | 64 | 910 | 9.8 | 2.8 | > 32 | > 32 | > 32 | > 32 | > 32 | > 32 | > 32 | 670 | 960 |
| O=C1N2CC=C(c3ncco3)C(C2)N1OS(=O)(=O)[O-].[Na+] (centres unmarked) [Example 4, Sodium [4-(oxazol-2-yl)-7-oxo-1,6-diazabicyclo[3.2.1]oct-3-en-6-yl]sulfate] | 2.9 | 8.4 | 7.5 | 390 | 260 | 800 | 46 | 2.9 | 16 | 16 | 8 | 32 | > 32 | > 32 | > 32 | 1500 | 940 |
| O=C1N2CC=C(c3cccnc3)C(C2)N1OS(=O)(=O)[O-].[Na+] (centres unmarked) [Example 9, Sodium [4-(3-pyridyl)-7-oxo-1,6-diazabicyclo[3.2.1]oct-3-en-6-yl]sulfate] | 3.8 | 11 | 4.8 | 68 | 130 | 730 | 52 | 1.4 | > 32 | 16 | – | > 32 | > 32 | > 32 | > 32 | 770 | 810 |
| Cn1ccc(C2=CCN3CC2N(OS(=O)(=O)[O-])C3=O)cc1=O.[Na+] (centres unmarked) [Example 13, Sodium [4-(1-methyl-2-oxo-4-pyridyl)-7-oxo-1,6-diazabicyclo[3.2.1]oct-3-en-6-yl] sulfate] | 6.1 | 8.8 | 6 | 63 | 820 | 730 | 230 | 2.3 | 16 | 8 | – | > 32 | > 32 | > 32 | > 32 | 2800 | 3200 |
| Cn1cc(C2=CCN3CC2N(OS(=O)(=O)[O-])C3=O)ncc1=O.[Na+] (centres unmarked) [Example 14, Sodium [4-(4-methyl-5-oxo-pyrazin-2-yl)-7-oxo-1,6-diazabicyclo[3.2.1]oct-3-en-6-yl] sulfate] | 1.6 | 2.9 | 2.7 | 52 | 730 | 920 | 33 | 1.4 | 8 | 8 | – | > 32 | > 32 | > 32 | > 32 | 890 | 1900 |
| O=C1N2CC(c3cnoc3)=CC(C2)N1OS(=O)(=O)[O-].[Na+] (centres unmarked) [Example 26, sodium [3-(isoxazol-4-yl)-7-oxo-1,6-diazabicyclo[3.2.1]oct-3-en-6-yl] sulfate] | 4.8 | 13 | 5.7 | 4.2 | 370 | 140 | 210 | 6.6 | 8 | 2 | – | 4 | 8 | 8 | > 32 | 51 | 74 |
| O=C1N2CC=C(c3ccns3)C(C2)N1OS(=O)(=O)[O-].[Na+] (centres unmarked) [Example 30, Sodium [4-(isothiazol-5-yl)-7-oxo-1,6-diazabicyclo[3.2.1]oct-3-en-6-yl] sulfate] | 5.2 | 15 | 1.8 | 63 | 150 | 720 | 23 | 2.5 | 8 | 4 | – | > 32 | > 32 | > 32 | > 32 | 200 | 780 |
| O=C1N2CC(n3ccnc3)=CC(C2)N1OS(=O)(=O)[O-].[Na+] (centres unmarked) [Example 34, Sodium [3-imidazol-1-yl-7-oxo-1,6-diazabicyclo[3.2.1]oct-3-en-6-yl]sulfate] | 7.2 | 21 | 2.7 | 24 | 410 | 650 | 220 | 220 | 8 | 8 | – | 16 | 32 | 16 | > 32 | 59 | 500 |
| O=C1N2CC(c3cnco3)=CC(C2)N1OS(=O)(=O)[O-].[Na+] (centres unmarked) [Example 35, Sodium [3-(oxazol-5-yl)-7-oxo-1,6-diazabicyclo[3.2.1]oct-3-en-6-yl]sulfate] | 2.3 | 8.4 | 0.81 | 8.2 | 1400 | 300 | 74 | 2.5 | 8 | 2 | – | 4 | 8 | 4 | > 32 | 51 | 210 |
| O=C1N2CC(c3ncon3)=CC(C2)N1OS(=O)(=O)[O-].[Na+] (centres unmarked) [Example 36, Sodium [3-(1,2,4-oxadiazol-3-yl)-7-oxo-1,6-diazabicyclo[3.2.1]oct-3-en-6-yl] sulfate] | 2.3 | 16 | 1.1 | 39 | 2400 | 920 | 660 | 2.1 | 8 | 1 | – | 4 | 16 | 8 | > 32 | 43 | 160 |
